Mass density data for three molecules are collected here from the NIST ThermoML archive (doi:10.1021/acs.jced.5b00894).

The term mass density denotes mass per unit of volume.

± gives the expanded uncertainty stated by the source.

For this data set the following is noted: 88 kPa, Liquid, Vibrating tube method.

As for `CCCCn1cc[n+](C)c1.F[B-](F)(F)F` [1-butyl-3-methylimidazolium tetrafluoroborate], the mass density reads like this: (298.15 K) 1202.71 ± 4.2 kg/m3; (313.15 K) 1192.29 ± 4.2 kg/m3; (333.15 K) 1178.73 ± 4.2 kg/m3.
Take `CCCCCCn1cc[n+](C)c1.N#C[S-]` [1-hexyl-3-methylimidazolium thiocyanate]: the mass density (298.15 K) is given as 1036.21 ± 4.1 kg/m3, the mass density (313.15 K) is on record as 1027.55 ± 4.1 kg/m3 and the mass density (333.15 K) was found to be 1016.12 ± 4.1 kg/m3.
In the same order, the values of `CCCCCCCCn1cc[n+](C)c1.O=[N+]([O-])[O-]` [1-methyl-3-octylimidazolium nitrate] are 1063.86 ± 4.1 kg/m3, 1054.55 ± 4.1 kg/m3 and 1042.42 ± 4.1 kg/m3.
